Measured values as given in ChEMBL document CHEMBL5137095, “N-Benzyl Benzamide Derivatives as Selective Sub-Nanomolar Butyrylcholinesterase Inhibitors for Possible Treatment in Advanced Alzheimer's Disease” (J Med Chem, 2022).
pIC50, pKi: −log10 of the molar value.

What was measured:
[1] = target: Cholinesterase (Equus caballus, UniProt P81908); test: Inhibition of horse serum BChE using acetylthiocholine iodide or butyrylthiocholine iodide as substrate preincubated for 5 mins followed by substrate addition by Ellman's method
Cholinesterase (Equus caballus, UniProt P81908), sequence (P81908 whole entry): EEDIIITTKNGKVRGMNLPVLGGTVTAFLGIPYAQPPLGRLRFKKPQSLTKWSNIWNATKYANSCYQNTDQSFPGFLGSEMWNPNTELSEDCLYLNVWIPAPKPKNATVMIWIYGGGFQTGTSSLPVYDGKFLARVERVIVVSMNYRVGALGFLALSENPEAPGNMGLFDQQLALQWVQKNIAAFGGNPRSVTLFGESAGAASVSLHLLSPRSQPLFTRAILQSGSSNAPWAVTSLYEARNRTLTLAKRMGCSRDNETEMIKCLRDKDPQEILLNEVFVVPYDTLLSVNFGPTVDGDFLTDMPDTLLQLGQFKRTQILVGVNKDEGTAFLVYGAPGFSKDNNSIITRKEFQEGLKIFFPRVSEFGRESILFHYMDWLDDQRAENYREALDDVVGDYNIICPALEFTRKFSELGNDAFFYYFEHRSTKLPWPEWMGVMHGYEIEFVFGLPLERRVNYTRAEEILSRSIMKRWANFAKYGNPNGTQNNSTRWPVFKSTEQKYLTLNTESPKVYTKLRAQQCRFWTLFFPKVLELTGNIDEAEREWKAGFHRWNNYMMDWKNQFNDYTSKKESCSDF

[2] = target: T1, Cholinesterase (Homo sapiens, UniProt P06276); test: Inhibition of human BChE using acetylthiocholine iodide or butyrylthiocholine iodide as substrate preincubated for 5 mins followed by substrate addition by Ellman's method
T1 sequence (P06276 whole entry): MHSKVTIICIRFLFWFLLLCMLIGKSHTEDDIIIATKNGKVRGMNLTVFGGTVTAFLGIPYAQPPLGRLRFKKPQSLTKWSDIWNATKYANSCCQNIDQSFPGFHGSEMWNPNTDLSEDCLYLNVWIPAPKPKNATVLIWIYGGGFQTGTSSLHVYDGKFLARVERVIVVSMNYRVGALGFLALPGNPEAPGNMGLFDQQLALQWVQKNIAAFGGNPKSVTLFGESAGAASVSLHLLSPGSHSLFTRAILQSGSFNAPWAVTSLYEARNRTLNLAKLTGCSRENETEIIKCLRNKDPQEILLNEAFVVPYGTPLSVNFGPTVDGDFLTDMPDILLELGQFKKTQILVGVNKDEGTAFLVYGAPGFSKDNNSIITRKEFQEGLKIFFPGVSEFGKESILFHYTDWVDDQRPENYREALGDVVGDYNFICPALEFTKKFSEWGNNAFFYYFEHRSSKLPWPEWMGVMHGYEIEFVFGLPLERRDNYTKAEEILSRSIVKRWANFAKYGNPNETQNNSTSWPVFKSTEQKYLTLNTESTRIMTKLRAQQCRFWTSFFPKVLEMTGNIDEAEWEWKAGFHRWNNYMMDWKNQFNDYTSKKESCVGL

[3] = n-octanol-water partition coefficient, log P of the compound by HPLC analysis; type: physicochemical
[4] = test system: BV-2; test: Cytotoxicity against mouse BV-2 cells assessed as reduction in cell viability at 10 uM by MTT assay; type: toxicity, cell-based; conditions: bv-2, 10 µM
[5] = Permeability of compound incubated for 18 hrs by PAMPA-BBB assay; type: ADME; conditions: read-out: permeability
[6] = test system: HT-22; test: Cytotoxicity against mouse HT-22 cells assessed as reduction in cell viability at 10 uM by MTT assay; type: toxicity, cell-based; conditions: ht-22, 10 µM
[7] = test system: PC-12; test: Cytotoxicity against rat PC-12 cells assessed as reduction in cell viability at 10 uM by MTT assay; type: toxicity, cell-based; conditions: pc-12, 10 µM
[8] = test system: SH-SY5Y; test: Cytotoxicity against human SH-SY5Y cells assessed as reduction in cell viability at 10 uM by MTT assay; type: toxicity, cell-based
[9] = Cytotoxicity against mouse BV-2 cells assessed as cell survival rate at 10 uM by MTT assay; type: toxicity, cell-based; conditions: read-out: Activity
[10] = Cytotoxicity against mouse HT-22 cells assessed as cell survival rate at 10 uM by MTT assay; type: toxicity, cell-based; conditions: read-out: Activity
[11] = Cytotoxicity against rat PC-12 cells assessed as cell survival rate at 10 uM by MTT assay; type: toxicity, cell-based; conditions: read-out: Activity
[12] = Cytotoxicity against human SH-SY5Y cells assessed as cell survival rate at 10 uM by MTT assay; type: toxicity, cell-based; conditions: read-out: Activity
[13] = test system: SH-SY5Y; test: Neuroprotective activity against GA-induced cell damage in human SH-SY5Y cells assessed as survival rate at 5 uM pretreated for 2 hrs followed by GA addition and measured after 24 hrs by MTT assay; type: functional
[14] = test system: PC-12; test: Neuroprotective activity against H2O2-induced cell damage in rat PC-12 cells assessed as survival rate at 5 to 10 uM pretreated for 2 hrs followed by H2O2 addition and measured after 24 hrs by MTT assay; type: functional; conditions: dose 5-10 µM, time 26 hrs
[15] = Inhibition of human BChE assessed as inhibition constant
[16] = target: T1, Cholinesterase; test: Inhibition of human BChE assessed as inhibition constant

SMILES: CCN(CC)Cc1ccccc1CNC(=O)c1ccc(Br)c(NC(=O)c2ccc(F)cc2)c1
- pIC50 [1]: 8.62
- pIC50 [2]: 8.59

SMILES: CCN(CC)Cc1ccccc1CNC(=O)c1cccc(NC(=O)C2CCCCC2)c1
- pIC50 [1]: 8.10
- pIC50 [2]: 8.43

SMILES: CCN(CC)Cc1ccccc1CNC(=O)c1cccc(NC(=O)c2ccc(F)cc2)c1Br
- pIC50 [1]: 7.84
- pIC50 [2]: 5.74

SMILES: CCN(CC)Cc1ccccc1CNC(=O)c1ccc(NC(=O)c2ccc(F)cc2)cc1
- pIC50 [1]: 8.30
- pIC50 [2]: 8.28

SMILES: CCN(CC)Cc1ccccc1CNC(=O)c1cc(NC(=O)c2ccc(F)cc2)cc(C(F)(F)F)c1
- pIC50 [1]: 8.87
- pIC50 [2]: 8.06

SMILES: CCN(CC)Cc1ccccc1CNC(=O)c1cccc(OC(=O)c2cccs2)c1
- pIC50 [1]: 6.80
- pIC50 [2]: 6.88

SMILES: Cc1ccccc1NC(=O)c1cccc(NC(=O)c2cccs2)c1
- pIC50 [1]: 4.89
- pIC50 [2]: 4.96

SMILES: CN(C)Cc1ccccc1NC(=O)c1cccc(NC(=O)c2cccs2)c1
- pIC50 [2]: 5.91

SMILES: CCN(CC)Cc1ccccc1CNC(=O)c1cccc(NC(=O)c2ccc(Br)cc2)c1
- pIC50 [1]: 10.06
- pIC50 [2]: 9.89
- logP [3]: 2.73

SMILES: CCN(CC)Cc1ccccc1CNC(=O)c1cc(NC(=O)c2ccc(F)cc2)ccc1Br
- pIC50 [1]: 8.45
- pIC50 [2]: 7.79

SMILES: CCN(CC)Cc1ccccc1CNC(=O)c1cc(NC(=O)c2ccc(F)cc2)cc(OC)c1
- pIC50 [1]: 9.09
- pIC50 [2]: 6.87

SMILES: CCN(CC)Cc1ccccc1CNC(=O)c1cc(Cl)cc(NC(=O)c2ccc(F)cc2)c1
- Activity [4]: Non-Toxic
- pIC50 [1]: 9.80
- pIC50 [2]: 9.66
- logP [3]: 1.11
- Papp at 18 h [5]: 7.54 ×10⁻⁶ cm/s
- Activity [6]: Non-Toxic
- Activity [7]: Non-Toxic
- Activity [8]: Non-Toxic
- viability at 10 µM [9]: > 70%
- viability at 10 µM [10]: > 70%
- viability at 10 µM [11]: > 70%
- viability at 10 µM [12]: > 70%

SMILES: CCN(CC)Cc1ccccc1CNC(=O)c1cccc(NC(=O)c2ccc(F)cc2)c1C
- pIC50 [1]: 9.85
- pIC50 [2]: 9.59
- logP [3]: 1.02
- Papp at 18 h [5]: 11.4 ×10⁻⁶ cm/s

SMILES: CCN(CC)Cc1ccccc1CNC(=O)c1cccc(NC(=O)c2cccs2)c1
- Activity [4]: Non-Toxic
- pIC50 [2]: 9.46
- logP [3]: 2.11
- Papp at 18 h [5]: 19 ×10⁻⁶ cm/s
- Activity [6]: Non-Toxic
- Activity [7]: Non-Toxic
- Activity [8]: Non-Toxic
- viability at 10 µM [9]: > 70%
- viability at 10 µM [10]: > 70%
- viability at 10 µM [11]: > 70%
- viability at 10 µM [12]: > 70%

SMILES: CCN(CC)Cc1ccccc1NC(=O)c1cccc(NC(=O)c2cccs2)c1
- pIC50 [2]: 6.27

SMILES: CCN(CC)Cc1ccccc1CNC(=O)c1cc(NC(=O)c2ccc(F)cc2)cc([N+](=O)[O-])c1
- Activity [4]: Non-Toxic
- pIC50 [1]: 8.90
- pIC50 [2]: 8.98
- Activity [6]: Non-Toxic
- Activity [7]: Non-Toxic
- Activity [8]: Non-Toxic
- viability at 10 µM [9]: > 70%
- viability at 10 µM [10]: > 70%
- viability at 10 µM [11]: > 70%
- viability at 10 µM [12]: > 70%

SMILES: CCN(CC)Cc1cccc(CNC(=O)c2cccc(NC(=O)c3cccs3)c2)c1
- pIC50 [1]: 4.26
- pIC50 [2]: 4.31

SMILES: CCCN(CCC)Cc1ccccc1NC(=O)c1cccc(NC(=O)c2cccs2)c1
- pIC50 [1]: 6.92
- pIC50 [2]: 6.06

SMILES: CCN(CC)Cc1ccccc1CNC(=O)c1cc(C#N)cc(NC(=O)c2ccc(F)cc2)c1
- pIC50 [1]: 8.82
- pIC50 [2]: 8.50

SMILES: CCN(CC)Cc1ccccc1CNC(=O)c1cccc(NC(=O)c2ccc(OC)cc2)c1
- Activity [4]: Non-Toxic
- Activity [6]: Non-Toxic
- Activity [7]: Non-Toxic
- Activity [8]: Non-Toxic
- viability at 10 µM [9]: > 70%
- viability at 10 µM [10]: > 70%
- viability at 10 µM [11]: > 70%
- viability at 10 µM [12]: > 70%

SMILES: CCN(CC)Cc1ccccc1CNC(=O)c1cccc(NS(=O)(=O)c2cccs2)c1
- pIC50 [1]: 6.46
- pIC50 [2]: 5.58

SMILES: CCN(CC)Cc1ccccc1CNC(=O)c1cccc(C(=O)Nc2cccs2)c1
- pIC50 [1]: 8.92
- pIC50 [2]: 7.89

SMILES: CCN(CC)Cc1ccccc1CNC(=O)c1cccc(NC(=O)c2cccc(F)c2)c1
- pIC50 [2]: 8.51

SMILES: CCN(CC)Cc1ccccc1CNC(=O)c1cc(F)cc(NC(=O)c2ccc(F)cc2)c1
- pIC50 [1]: 9.26
- pIC50 [2]: 9.21
- logP [3]: 1.36

SMILES: CCN(CC)Cc1ccccc1CNC(=O)c1cccc(NC(=O)c2ccccc2)c1
- pIC50 [1]: 9.02

SMILES: CCN(CC)Cc1ccccc1CNC(=O)c1cccc(NC(=O)c2ccc(C)cc2)c1
- Activity [4]: Non-Toxic
- pIC50 [1]: 7.11
- pIC50 [2]: 7.35
- Activity [6]: Non-Toxic
- Activity [7]: Non-Toxic
- Activity [8]: Non-Toxic
- viability at 10 µM [9]: > 70%
- viability at 10 µM [10]: > 70%
- viability at 10 µM [11]: > 70%
- viability at 10 µM [12]: > 70%

SMILES: CCN(CC)Cc1ccc(CNC(=O)c2cccc(NC(=O)c3cccs3)c2)cc1
- pIC50 [1]: 5.23
- pIC50 [2]: 5.46

SMILES: CCN(CC)Cc1ccccc1CNC(=O)c1cc(Br)cc(NC(=O)c2ccc(F)cc2)c1
- pIC50 [1]: 9.38
- pIC50 [2]: 9.24
- logP [3]: 2.04
- Papp at 18 h [5]: 6.93 ×10⁻⁶ cm/s
- Activity [13]: 70%

SMILES: CCN(CC)Cc1ccccc1CNC(=O)c1cccc(NC(=O)c2ccccc2F)c1
- pIC50 [1]: 8.18
- pIC50 [2]: 8.30

SMILES: CCN(CC)Cc1ccccc1CNC(=O)c1cccc(NC(=O)c2ccc(Cl)cc2)c1
- pIC50 [1]: 8.99
- pIC50 [2]: 9.12
- logP [3]: 2.67
- Papp at 18 h [5]: 6.02 ×10⁻⁶ cm/s

SMILES: CCN(CC)Cc1ccccc1CNC(=O)c1ccc(C)c(NC(=O)c2ccc(F)cc2)c1
- pIC50 [1]: 9.42
- pIC50 [2]: 6.87

SMILES: O=C(NCc1ccccc1)c1cccc(NC(=O)c2cccs2)c1
- pIC50 [1]: 4.01
- pIC50 [2]: 4.50

SMILES: CCN(CC)Cc1ccccc1CNC(=O)c1cccc(NC(=O)c2ccc(I)cc2)c1
- pIC50 [1]: 9.47
- pIC50 [2]: 9.96
- Papp at 18 h [5]: 10.1 ×10⁻⁶ cm/s

SMILES: CCN(CC)Cc1ccccc1CNC(=O)c1cccc(NC(=O)c2c(F)c(F)c(F)c(F)c2F)c1
- pIC50 [1]: 9.32
- pIC50 [2]: 8.89

SMILES: CCN(CC)Cc1ccccc1CNC(=O)c1ccccc1NC(=O)c1ccc(F)cc1
- pIC50 [1]: 6.73
- pIC50 [2]: 6.94

SMILES: CCN(CC)Cc1ccccc1CNC(=O)c1cccc(NC(=O)c2ccco2)c1
- Activity [4]: Non-Toxic
- pIC50 [2]: 9.59
- Papp at 18 h [5]: 6.89 ×10⁻⁶ cm/s
- Activity [6]: Non-Toxic
- Activity [7]: Non-Toxic
- Activity [8]: Non-Toxic
- viability at 10 µM [9]: > 70%
- viability at 10 µM [10]: > 70%
- viability at 10 µM [11]: > 70%
- viability at 10 µM [12]: > 70%

SMILES: CCCN(CCC)Cc1ccccc1CNC(=O)c1cccc(NC(=O)c2cccs2)c1
- Activity [4]: Non-Toxic
- pIC50 [2]: 9.17
- logP [3]: 1.02
- Papp at 18 h [5]: 8.69 ×10⁻⁶ cm/s
- Activity [6]: Non-Toxic
- Activity [7]: Non-Toxic
- Activity [8]: Non-Toxic
- viability at 10 µM [9]: > 70%
- viability at 10 µM [10]: > 70%
- viability at 10 µM [11]: > 70%
- viability at 10 µM [12]: > 70%
- Activity [14]: 61.7%

SMILES: CCN(CC)Cc1ccccc1CNC(=O)c1cc(NC(=O)c2ccc(F)cc2)ccc1C
- Activity [4]: Non-Toxic
- pIC50 [1]: 8.87
- pIC50 [2]: 8.57
- Activity [6]: Non-Toxic
- Activity [7]: Non-Toxic
- Activity [8]: Non-Toxic
- viability at 10 µM [9]: > 70%
- viability at 10 µM [10]: > 70%
- viability at 10 µM [11]: > 70%
- viability at 10 µM [12]: > 70%

SMILES: CCN(CC)C(C)CN1c2ccccc2Sc2ccccc21 (stereo unspecified) [ETHOPROPAZINE]
- pKi [15]: 7.70

SMILES: Cc1ccc2c(c1)sc(-c1ccc(N(C)C)cc1)[n+]2C [THIOFLAVIN T]
- pKi [16]: 6.10
